Experimental data: patent US7183415B2, “Quinoline compound” (Takeda Pharmaceutical Company Limited, priority 2001, dated 2007)

| Structure (SMILES) | melting point |
| --- | --- |
| Cc1c(NC(=O)c2ccc(-c3ccccc3)cc2)ccc2cc(CN3CCCC3)cnc12 [Example 17, N-[8-methyl-3-(1-pyrrolidinylmethyl)-7-quinolinyl][1,1′-biphenyl]-4-carboxamide] | 184 to 186 °C |
| NC(=O)C1CCN(Cc2cnc3cc(NC(=O)c4ccc(-c5ccc(Cl)cc5)cc4)ccc3c2)CC1 [Example 90, 1-[(7-{[(4′-chloro-1,1′-biphenyl-4-yl)carbonyl]amino}-3-quinolinyl)methyl]piperidine-4-carboxamide] | 260 °C |
| CC(=O)NC1CCN(Cc2cnc3cc(NC(=O)c4ccc(-c5ccc(Cl)cc5)cc4)ccc3c2)C1 (centres unmarked) [Example 92, N-(3-{[3-(acetylamino)-1-pyrrolidinyl]methyl}-7-quinolinyl)-4′-chloro-[1,1′-biphenyl]-4-carboxamide] | > 285 °C |
| Cc1cc2cc(CN3CCC(C(N)=O)CC3)cnc2cc1NC(=O)c1ccc(-c2ccc(F)cc2)cc1 [Example 276, 1-[(7-{[(4′-fluoro-1,1′-biphenyl-4-yl)carbonyl]amino}-6-methyl-3-quinolinyl)methyl]piperidine-4-carboxamide] | 265 °C |
| CN1CCc2nc3cc(NC(=O)c4ccc(-c5ccc(Cl)cc5)cc4)ccc3cc2C1 [Example 326, 4′-chloro-N-(2-methyl-1,2,3,4-tetrahydrobenzo[b][1,6]naphthyridin-7-yl)[1,1′-biphenyl]-4-carboxamide] | > 220 °C (dec.) |
| Cc1c(NC(=O)c2ccc(-c3ccccc3F)c(F)c2)ccc2cc(CN3CCCC3)cnc12 [Example 156, 2,2′-difluoro-N-[8-methyl-3-(1-pyrrolidinylmethyl)-7-quinolinyl][1,1′-biphenyl]-4-carboxamide] | 139 to 140 °C |
| Cc1c(NC(=O)c2ccc(-c3ccc(F)cc3)cc2)ccc2cc(CN3CCC(CCCC(=O)N4CCCCC4)CC3)cnc12 [Example 211, 4′-fluoro-N-[8-methyl-3-({4-[4-oxo-4-(1-piperidinyl)butyl]-1-piperidinyl}methyl)-7-quinolinyl][1,1′-biphenyl]-4-carboxamide] | 154 to 156 °C |
| Cc1ccccc1-c1ccc(C(=O)Nc2ccc3cc(CN4CCCC4)cnc3c2C)cc1 [Example 111, 2′-methyl-N-[8-methyl-3-(1-pyrrolidinylmethyl)-7-quinolinyl][1,1′-biphenyl]-4-carboxamide] | 150 to 151 °C |
| O=C(Nc1ccc2cc(CN3CCCC3)cnc2c1)c1ccc(-c2ccccc2)cc1 [Example 2, N-[3-(1-pyrrolidinylmethyl)-7-quinolinyl][1,1′-biphenyl]-4-carboxamide] | 192 to 194 °C |
| Cc1ccc(-c2ccc(C(=O)Nc3ccc4cc(CN5CCC(C(N)=O)CC5)cnc4c3C)cc2)cc1 [Example 26, 1-[(8-methyl-7-{[(4′-methyl-1,1′-biphenyl-4-yl)carbonyl]amino}-3-quinolinyl)methyl]-4-piperidine carboxamide] | 287 °C (dec.) |
| CCN(CC)C(=O)CC1CCN(Cc2cnc3cc(NC(=O)c4ccc(-c5ccc(F)cc5)cc4)c(C)cc3c2)CC1 [Example 266, N-[3-({4-[2-(diethylamino)-2-oxoethyl]-1-piperidinyl}methyl)-6-methyl-7-quinolinyl]-4′-fluoro[1,1′-biphenyl]-4-carboxamide] | 197 °C |
| CCN(CC)C(=O)CCCC1CCN(Cc2cnc3cc(NC(=O)c4ccc(-c5ccc(F)cc5)cc4)c(C)cc3c2)CC1 [Example 260, N-[3-({4-[4-(diethylamino)-4-oxobutyl]-1-piperidinyl}methyl)-6-methyl-7-quinolinyl]-4′-fluoro[1,1′-biphenyl]-4-carboxamide] | 181 °C |
| Cc1c(NC(=O)c2ccc(-c3ccc(C(F)(F)F)cc3)cc2F)ccc2cc(CN3CCCC3)cnc12 (hydrate or solvate) [Example 138, 3-fluoro-N-[8-methyl-3-(1-pyrrolidinylmethyl)-7-quinolinyl]-4′-(trifluoromethyl)[1,1′-biphenyl]-4-carboxamide] | 202 to 203 °C |
| O=C(Nc1ccc2cc(CN3CCCC3)cnc2c1)c1ccc(-c2ccc(F)cc2)cc1F [Example 86] | 177 °C |
| CC(=O)c1ccc(-c2ccc(C(=O)Nc3ccc4cc(CN5CCCC5)cnc4c3C)cc2)s1 (hydrate or solvate) [Example 119, 4-(5-acetyl-2-thienyl)-N-[8-methyl-3-(1-pyrrolidinylmethyl)-7-quinolinyl]benzamide] | 194 to 195 °C |
| COc1ccc(-c2ccc(C(=O)Nc3ccc4cc(CN5CCCC5)cnc4c3)c(F)c2)cc1 [Example 87, 3-fluoro-4′-methoxy-N-[3-(1-pyrrolidinylmethyl)-7-quinolinyl][1,1′-biphenyl]-4-carboxamide] | 174 °C |
| Cc1c(NC(=O)c2ccc(-c3ccc(C(F)(F)F)cc3)cc2)ccc2cc(CN3CCCC3)cnc12 [Example 101, N-[8-methyl-3-(1-pyrrolidinylmethyl)-7-quinolinyl]-4′-(trifluoromethyl)[1,1′-biphenyl]-4-carboxamide] | 220 to 222 °C |
| CNC(=O)C1CCN(Cc2cnc3cc(NC(=O)c4ccc(-c5ccc(F)cc5)cc4)c(C)cc3c2)CC1 [Example 275, 1-[(7-{[(4′-fluoro-1,1′-biphenyl-4-yl)carbonyl]amino}-6-methyl-3-quinolinyl)methyl]-N-methylpiperidine-4-carboxamide] | 257 °C |
| O=C(Nc1cc2ncc(CN3CCCC3)cc2cc1N1CCCC1)c1ccc(Br)cc1 [Example 63, 4-bromo-N-[6-(1-pyrrolidinyl)-3-(1-pyrrolidinylmethyl)-7-quinolinyl]benzamide] | 171 to 173 °C |
| Cc1ccc(-c2ccc(C(=O)Nc3ccc4cc(CN5CCCC5)cnc4c3)cn2)cc1 [Example 10, 6-(4-methylphenyl)-N-[3-(1-pyrrolidinylmethyl)-7-quinolinyl]nicotinamide] | 226 to 228 °C |
| Cc1c(NC(=O)c2ccc(-c3ccccc3)c(F)c2)ccc2cc(CN3CCCC3)cnc12 [Example 151, 2-fluoro-N-[8-methyl-3-(1-pyrrolidinylmethyl)-7-quinolinyl][1,1′-biphenyl]-4-carboxamide] | 156 to 158 °C |
| Cc1cc2cc(CN3CCC(CC(=O)N(C)C)CC3)cnc2cc1NC(=O)c1ccc(-c2ccc(F)cc2)cc1 [Example 268, N-[3-({4-[2-(dimethylamino)-2-oxoethyl]-1-piperidinyl}methyl)-6-methyl-7-quinolinyl]-4′-fluoro[1,1′-biphenyl]-4-carboxamide] | 219 °C |

More lines, now with the values ahead:

| melting point | Structure (SMILES) |
| --- | --- |
| 229 °C | Cc1cc2cc(CN3CCC(C(=O)N(C)C)CC3)cnc2cc1NC(=O)c1ccc(-c2ccc(F)cc2)cc1 [Example 274, 1-[(7-{[(4′-fluoro-1,1′-biphenyl-4-yl)carbonyl]amino}-6-methyl-3-quinolinyl)methyl]-N,N-dimethylpiperidine-4-carboxamide] |
| 166 °C | O=C(Nc1ccc2cc(CN3CCCC3)cnc2c1)c1ccc(-c2ccccc2)cc1F [Example 88, 3-fluoro-N-[3-(1-pyrrolidinylmethyl)-7-quinolinyl][1,1′-biphenyl]-4-carboxamide] |
| 177 to 179 °C | Cc1ccc(-c2ccc(C(=O)Nc3ccc4cc(CN5CCCC5)cnc4c3C)cc2)cc1 [Example 20, 4′-methyl-N-[8-methyl-3-(1-pyrrolidinylmethyl)-7-quinolinyl][1,1′-biphenyl]-4-carboxamide] |
| 178 °C | O=C(Nc1ccc2cc(CN3CCCC3)cnc2c1F)c1ccc(-c2ccc(F)cc2)cc1 [Example 73, 4′-fluoro-N-[8-fluoro-3-(1-pyrrolidinylmethyl)-7-quinolinyl][1,1′-biphenyl]-4-carboxamide] |
| 214 to 217 °C | Cc1cc2cc(CN3CCCC3)cnc2cc1NC(=O)c1ccc(-c2ccc(Cl)cc2)cc1 [Example 39, 4′-chloro-N-[6-methyl-3-(1-pyrrolidinylmethyl)-7-quinolinyl][1,1′-biphenyl]-4-carboxamide] |
| 156 to 158 °C | CCCC(=O)Oc1ccc(C(=O)Nc2ccc3cc(CN4CCCC4)cnc3c2C)cc1 [Example 331, 4-({[8-methyl-3-(1-pyrrolidinylmethyl)-7-quinolinyl]amino}carbonyl)phenyl butyrate] |
| 189 to 190 °C | Cc1c(NC(=O)c2ccc(-c3ccc(F)cc3)cc2)ccc2cc(CN3CCC(CC(=O)N4CCCCC4)CC3)cnc12 [Example 205, 4′-fluoro-N-[8-methyl-3-({4-[2-oxo-2-(1-piperidinyl)ethyl]-1-piperidinyl}methyl)-7-quinolinyl][1,1′-biphenyl]-4-carboxamide] |
| 209 to 212 °C | O=C(Nc1cc2ncc(CN3CCCC3)cc2cc1F)c1ccc(-c2ccc(C(F)(F)F)cc2)cc1 [Example 55, N-[6-fluoro-3-(1-pyrrolidinylmethyl)-7-quinolinyl]-4′-(trifluoromethyl)[1,1′-biphenyl]-4-carboxamide] |
| 161 to 162 °C | Cc1c(NC(=O)c2ccc(-c3ccc(F)cc3)c(F)c2)ccc2cc(CN3CCCCC3)cnc12 (hydrate or solvate) [Example 176, 2,4′-difluoro-N-[8-methyl-3-(1-piperidinylmethyl)-7-quinolinyl][1,1′-biphenyl]-4-carboxamide] |
| 217 to 220 °C | COc1ccc(-c2ccc(C(=O)Nc3ccc4cc(CN5CCCC5)cnc4c3F)cc2)cc1 [Example 72, N-[8-fluoro-3-(1-pyrrolidinylmethyl)-7-quinolinyl]-4′-methoxy[1,1′-biphenyl]-4-carboxamide] |
| 206 to 208 °C | O=C(Nc1ccc2cc(CN3CCCC3)cnc2c1F)c1ccc(-c2ccc(Cl)cc2)cc1 [Example 75, 4′-chloro-N-[8-fluoro-3-(1-pyrrolidinylmethyl)-7-quinolinyl][1,1′-biphenyl]-4-carboxamide] |
| 163 to 164 °C | O=C(Nc1cc2ncc(CN3CCCC3)cc2cc1F)c1ccc(-c2ccccc2)cc1F [Example 58, 3-fluoro-N-[6-fluoro-3-(1-pyrrolidinylmethyl)-7-quinolinyl][1,1′-biphenyl]-4-carboxamide] |
| 204 °C | O=C(Nc1ccc2cc(CN3CCC(CCO)CC3)cnc2c1)c1ccc(-c2ccc(Cl)cc2)cc1 [Example 89, 4′-chloro-N-(3-{[4-(2-hydroxyethyl)-1-piperidinyl]methyl}-7-quinolinyl)-[1,1′-biphenyl]-4-carboxamide] |
